From patent US20230416679A1, “METHODS AND COMPOSITIONS FOR IN-VITRO AUGMENTATION OF MILK PRODUCTION FROM MAMMARY EPITHELIAL CELLS” (Wilk Technologies International Ltd., priority 2021, published 2023) come the findings set out here.

Test [1] deals with primary culture of bovine mammary epithelial cells. In words: Intracellular lipid droplets fluorescence staining (Nile red / DAPI). The test is classed as cell-based. As to conditions: gallic acid added to MEC primary culture (FIG. 6). The text has this:
For all the experiments, primary culture of bovine mammary epithelial cells were used. The cells were isolated from 3 lactating Holstein cows according to an established protocol (Cohen et al., 2015 supra). Study protocols were in compliance with the regulations of the Israeli Ministry of Health, under the supervision of the Department for Control of Animal Products, State of Israel Ministry of Agriculture Rural Development Veterinary Services and Animal Health. Certificate Nu: #80. After isolation, 60,000 cells were plated in a 35-mm plastic dish on glass cover slips for all florescence staining experiments. […] After 24 h of incubation, medium was collected for triglyceride and phospholipid quantification, and cells were harvested for cell counting, lipid, lactose or protein extraction. […] Cover slips were then rinsed four times with PBS and mounted with fluorescence mounting medium (Dako, North America Inc., Carpinteria, CA). Slides were visualized with an Olympus BX40 fluorescence microscope equipped with an Olympus DP73 digital camera using CellSens Entry software (version 1.7, Olympus). Lipid droplet diameter was measured using ImageJ software (version 1.48, NIH, Bethesda, MD). […] The effect of oleic acid on accumulation of fat in primary culture of mammary epithelial cells was determined using Nile red staining (red). […]

Test [2] shares this test system. In words: Intracellular triglyceride content in cell lysates (lipid extraction, HPLC-ELSD). The test is classed as cell-based. As to conditions: 24 h of treatment (FIG. 7). The text has this: For all the experiments, primary culture of bovine mammary epithelial cells were used. The cells were isolated from 3 lactating Holstein cows according to an established protocol (Cohen et al., 2015 supra). Study protocols were in compliance with the regulations of the Israeli Ministry of Health, under the supervision of the Department for Control of Animal Products, State of Israel Ministry of Agriculture Rural Development Veterinary Services and Animal Health. Certificate Nu: #80. After isolation, 60,000 cells were plated in a 35-mm plastic dish on glass cover slips for all florescence staining experiments. For production analysis, 150,000 cells were plated in a 60-mm plastic dish for lipids, protein, and lactose extraction. Oxygen consumption assay was performed by using Seahorse system (Agilent, USA); cells were plated in 24-well plate (20,000 cells/well) and incubated with DMEM/F12, with 0.15% (v/v) bovine serum albumin and insulin (1 μg/ml), hydrocortisone (0.5 μg/ml) and prolactin (1 μg/ml) for 48 h to induce lactogenic response. Then cells were treated with three different P. lentiscus extracts: ethyl acetate, hexane and chloroform, according to the protocol that was used before (Azaizeh et al., 2013). The extracts were diluted with DMEM/F12 medium supplemented with Dimethyl Sulfoxide (DMSO) in a final concentration of 0.1% for better dissolution of the extractions. […] The treatment was given in the presence of insulin (1 μg/ml), hydrocortisone (0.5 μg/ml) and prolactin (1 μg/ml). […] Otherwise, cells were fixed for florescence staining or plates taken to seahorse for oxygen consumption rate measurement.
After treatment, total lipids were extracted from harvested cells and from collected medium. The medium or the cells were diluted by 20 times Folch reagent (Chloroform-Methanol 2:1). After overnight incubation with cold extraction at 4° C., the upper phase was removed, and the lower phase was filtered through glass wool. Samples were then evaporated under a nitrogen stream at 65° C., diluted in 100 μl chloroform:methanol (97:3, v/v) and stored at −20° C. until injection for HPLC analysis. […] Quantification was performed against external standard curves and expressed as μg/per 10^6 live cells or as weight % out of the sum of phospholipids (μg) in the sample. Live cell number was determined with a hemocytometer after 5 min of trypan blue staining. […]
Cells were incubated with 360 uM oleic acid (O) with or without 1.2 mM beta hydroxybutyrate (BHBA, H). The concentration of triglyceride was measured in cell lysates.

As to `O=C(O)c1cc(O)c(O)c(O)c1` [gallic acid], the “size of the intracellular lipid droplets” value in test [1] was “increased”. In test [2], the intracellular triglyceride content entry is “did not affect”.

On to `O=c1c(O)c(-c2cc(O)c(O)c(O)c2)oc2cc(O)cc(O)c12` [myricetin, Myricetin], for which the intracellular triglyceride content entry in test [2] is on record as “did not affect”.
